Test results as given in the supplement of paper PMC4862054.

What was measured:
[1] = tested on: BT-474; conditions: 72 h
Method: (§1)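 Drug sensitivity and resistance testing (DSRT) of breast cancer cell lines in 384-well plates, 5 concentrations in 10-fold dilutions over a compound-specific 10,000-fold range. After 72 h, cytotoxicity was read by CellTox Green fluorescence and viability by CellTiter-Glo luminescence (multiplexed), normalised to DMSO and benzethonium chloride controls. EC50 is the inflection point of the fitted dose-response curve (bottom asymptote free, so it can be relative for partial curves) and is censored at the highest tested concentration. Rows with DSS 0 (no meaningful response) were excluded.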

[2] = tested on: BT-549; conditions: 72 h
Method: as §1

[3] = tested on: CAL-85-1; conditions: 72 h
Method: as §1

[4] = tested on: CAL-51; conditions: 72 h
Method: as §1

[5] = tested on: Hs578T; conditions: 72 h
Method: as §1

[6] = tested on: BT-474; assay: normalised response (% of control), CellTiter-Glo; higher = more viable cells (100 = DMSO, 0 = benzethonium chloride kill control); conditions: incubation time: 72 h
How it was run: (§2)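 Breast cancer cell lines in 20 µl suspension were added to 384-well plates containing compound at 5 concentrations, spaced in 10-fold steps across a 10,000-fold range chosen for each compound, and incubated for 72 h. CellTox Green fluorescence was read at 485/520 nm, followed by CellTiter-Glo luminescence after 10 min at room temperature. Signals on each plate were normalised so that 0.1 % DMSO equals 100 and a positive kill control equals 0. Every value in the table is the normalised signal at one concentration of the series.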

[7] = tested on: CAL-120; assay: as above; conditions: incubation time: 72 h
How it was run: as §2

[8] = tested on: SK-BR-3; assay: as above; conditions: incubation time: 72 h
How it was run: as §2

[9] = tested on: HCC1937; assay: as above; conditions: incubation time: 72 h
How it was run: as §2

[10] = tested on: BT-549; assay: as above; conditions: incubation time: 72 h
How it was run: as §2

[11] = tested on: MCF-10A; assay: as above; conditions: incubation time: 72 h
How it was run: as §2

[12] = tested on: HCC1143; assay: as above; conditions: incubation time: 72 h
How it was run: as §2

[13] = tested on: MDA-MB-436; assay: as above; conditions: incubation time: 72 h
How it was run: as §2

[14] = tested on: CAL-148; assay: as above; conditions: incubation time: 72 h
How it was run: as §2

[15] = tested on: MFM-223; assay: as above; conditions: incubation time: 72 h
How it was run: as §2

[16] = tested on: Hs578T; assay: as above; conditions: incubation time: 72 h
How it was run: as §2

[17] = tested on: DU-4475; assay: as above; conditions: incubation time: 72 h
How it was run: as §2

[18] = tested on: HCC1599; assay: as above; conditions: incubation time: 72 h
How it was run: as §2

[19] = tested on: HDQ-P1; assay: as above; conditions: incubation time: 72 h
How it was run: as §2

[20] = tested on: CAL-51; assay: as above; conditions: incubation time: 72 h
How it was run: as §2

[21] = tested on: CAL-85-1; assay: as above; conditions: incubation time: 72 h
How it was run: as §2

[22] = tested on: MDA-MB-468; assay: as above; conditions: incubation time: 72 h
How it was run: as §2

[23] = tested on: MDA-MB-453; assay: as above; conditions: incubation time: 72 h
How it was run: as §2

[24] = tested on: MDA-MB-231; assay: as above; conditions: incubation time: 72 h
How it was run: as §2

[25] = tested on: MDA-MB-468; conditions: 72 h
Method: as §1

| Compound | EC50, CellTox Green [2] | normalised response [6] | normalised response [7] | normalised response [8] | normalised response [9] | normalised response [10] | normalised response [11] | normalised response [12] | normalised response [13] | normalised response [14] | normalised response [15] | normalised response [16] | normalised response [17] | normalised response [18] | normalised response [19] | normalised response [20] | normalised response [21] | normalised response [22] | normalised response [23] | normalised response [24] | other results |
| --- | --- | --- | --- | --- | --- | --- | --- | --- | --- | --- | --- | --- | --- | --- | --- | --- | --- | --- | --- | --- | --- |
| CN[C@@H](C)C(=O)N[C@H]1CN(C(=O)CC(C)C)CC[C@H]2CC[C@@H](C(=O)NC(c3ccccc3)c3ccccc3)N2C1=O [AT-406] | 18.9 nM |  |  |  |  |  |  |  |  |  |  |  |  |  |  |  |  |  |  |  | EC50, CellTox Green [1]: > 10000 nM; EC50, CellTox Green [3]: 75.9 nM |
| Cc1cc(Nc2nc(N[C@@H](C)c3ncc(F)cn3)ncc2Cl)[nH]n1 [AZD1480] | > 1000 nM |  |  |  |  |  |  |  |  |  |  |  |  |  |  |  |  |  |  |  |  |
| CNC(=O)c1ccccc1Sc1ccc2c(/C=C/c3ccccn3)n[nH]c2c1 [Axitinib] |  |  |  |  |  |  |  |  |  |  |  |  |  |  |  |  |  |  |  |  | EC50, CellTox Green [4]: 1180 nM |
| CC1(COc2ccc3c(c2)ncn3-c2ccc3cccc(N4CCC(N)CC4)c3n2)COC1 [Crenolanib] | 3000 nM |  |  |  |  |  |  |  |  |  |  |  |  |  |  |  |  |  |  |  | EC50, CellTox Green [1]: 2390 nM; EC50, CellTox Green [4]: 4710 nM; EC50, CellTox Green [3]: 2620 nM |
| CC(C)(C)c1nc(-c2cccc(NS(=O)(=O)c3c(F)cccc3F)c2F)c(-c2ccnc(N)n2)s1 [Dabrafenib] |  |  |  |  |  |  |  |  |  |  |  |  |  |  |  |  |  |  |  |  | EC50, CellTox Green [5]: 9.91 nM |
| Nc1ccn([C@@H]2O[C@H](CO)[C@@H](O)C2(F)F)c(=O)n1 [Gemcitabine] (1000 nM) |  | 74.2% | 73% | 42.7% | 85.8% | 44.7% | 65.8% | 38.9% | 30.7% | 51% | 97.7% | 74.9% | 78.5% | 41.4% | 82.8% | 34% | 40.5% | 22.1% | 74.5% | 79.5% |  |
| CC(C)C[C@H](NC(=O)[C@@H](COC(C)(C)C)NC(=O)[C@H](Cc1ccc(O)cc1)NC(=O)[C@H](CO)NC(=O)[C@H](Cc1c[nH]c2ccccc12)NC(=O)[C@H](Cc1cnc[nH]1)NC(=O)[C@@H]1CCC(=O)N1)C(=O)N[C@@H](CCCNC(=N)N)C(=O)N1CCC[C@H]1C(=O)NNC(N)=O [Goserelin] |  |  |  |  |  |  |  |  |  |  |  |  |  |  |  |  |  |  |  |  | EC50, CellTox Green [1]: > 10000 nM |
| CC(C)C[C@H](NC(=O)[C@@H](COC(C)(C)C)NC(=O)[C@H](Cc1ccc(O)cc1)NC(=O)[C@H](CO)NC(=O)[C@H](Cc1c[nH]c2ccccc12)NC(=O)[C@H](Cc1cnc[nH]1)NC(=O)[C@@H]1CCC(=O)N1)C(=O)N[C@@H](CCCNC(=N)N)C(=O)N1CCC[C@H]1C(=O)NNC(N)=O [Goserelin] (10000 nM) |  | 92.6% | 94.8% | 102% | 96% | 101% | 100% | 101% | 97.7% | 91.2% | 98.9% | 96.5% | 97.1% | 97.5% | 101% | 113% | 93.8% | 93.7% | 101% | 101% |  |
| O=C(O)CNC(=O)c1c(O)c2ccccc2n(Cc2ccccc2)c1=O [IOX-2] | 1170 nM |  |  |  |  |  |  |  |  |  |  |  |  |  |  |  |  |  |  |  |  |
| CC(=O)[C@]1(O)Cc2c(O)c3c(c(O)c2[C@@H](O[C@H]2C[C@H](N)[C@H](O)[C@H](C)O2)C1)C(=O)c1ccccc1C3=O [Idarubicin] (1000 nM) |  | 16.6% | 30% | 7.62% | 30.1% | 6.26% | 27.3% | 16.6% | 20.6% | 0.6% | 9.33% | 13.1% | 0.36% | 7.7% | 39% | 0.98% | 3.35% | 5.57% | 31.2% | 24.7% |  |
| C/C(=C\c1csc(C)n1)[C@@H]1C[C@@H]2O[C@]2(C)CCC[C@H](C)[C@H](O)[C@@H](C)C(=O)C(C)(C)[C@@H](O)CC(=O)N1 [Ixabepilone] | 10.8 nM |  |  |  |  |  |  |  |  |  |  |  |  |  |  |  |  |  |  |  | EC50, CellTox Green [4]: 38.4 nM; EC50, CellTox Green [3]: 437 nM |
| C/C(=C\c1csc(C)n1)[C@@H]1C[C@@H]2O[C@]2(C)CCC[C@H](C)[C@H](O)[C@@H](C)C(=O)C(C)(C)[C@@H](O)CC(=O)N1 [Ixabepilone] (1000 nM) |  | 41.9% | 98% | 104% | 104% | 20.8% | 95.6% | 97.6% | 103% | 107% | 101% | 99% | 100% | 115% | 99.1% | 23.7% | 26.1% | 23% | 106% | 73.8% |  |
| C=CCn1c(=O)c2cnc(Nc3ccc(N4CCN(C)CC4)cc3)nc2n1-c1cccc(C(C)(C)O)n1 [MK1775] (10000 nM) |  | 29.4% | 22.8% | 8.92% | 28.3% | 6.99% | 19% | 17.5% | 15.8% | 9.04% | 36.1% | 22% | 11.9% | 4.65% | 17.4% | 8.21% | 11.4% | 6.6% | 44% | 23.7% |  |
| CN(C)C(=N)NC(=N)N [Metformin] |  |  |  |  |  |  |  |  |  |  |  |  |  |  |  |  |  |  |  |  | EC50, CellTox Green [4]: 100 nM; EC50, CellTox Green [25]: 710 nM |
| CN(Cc1cnc2nc(N)nc(N)c2n1)c1ccc(C(=O)N[C@@H](CCC(=O)O)C(=O)O)cc1 [Methotrexate] |  |  |  |  |  |  |  |  |  |  |  |  |  |  |  |  |  |  |  |  | EC50, CellTox Green [5]: 11000 nM; EC50, CellTox Green [3]: > 50000 nM |
